Assay results published in US7183252B2, “Indole peptidomimetics as thrombin receptor antagonists” (Ortho-McNeil Pharmaceutical, Inc., priority 1999, dated 2007).
Read-outs that look alike come from different tables or passages of the source.

Experiments:
[1] = test system: gel-filtered platelets; test: In vitro inhibition of thrombin-induced gel-filtered platelet aggregation; format: cell-based; details: human gel-filtered platelets, agonist thrombin 50 μL of 1 unit/mL, read-out: Thrmb IC50 (Thrombin-induced aggregation of gel-filtered platelets)
Experimental: In Vitro Inhibition of Thrombin-Induced Gel-Filtered Platelet Aggregation Assay
The percentage of platelet aggregation is calculated as an increase in light transmission of compound-treated platelet concentrate vs. control-treated platelet concentrate. Human blood is obtained from drug free, normal donors in tubes containing 0.13M sodium citrate. Platelet rich plasma (PRP) is collected by centrifugation of whole blood at 200×g for 10 min at 25° C. The PRP (5 mL) is gel filtered through Sepharose 2B (bed volume 50 mL), and the platelet count is adjusted to 2×10^7 platelets per sample. The following constituents are added to a siliconized cuvette: concentrated platelet filtrate and Tyrode's buffer (0.14M NaCl, 0.0027M KCl, 0.012M NaHCO3, 0.76 mM Na2HPO4, 0.0055M glucose, 2 mg/mL BSA and 5.0 mM HEPES @ pH 7.4) in an amount equal to 350 μL 50 μL of 20 mM calcium and 50 μL of the test compound. Aggregation is monitored in a BIODATA aggregometer for the 3 min following the addition of agonist (thrombin 50 μL of 1 unit/mL).
(§1) Table 7 contains IC50 values (μM) of the compounds in a thrombin receptor binding assay, and IC50 values (μM) against platelet aggregation stimulated by thrombin.

[2] = biological target: T1, thrombin receptor (PAR-1) (Homo sapiens, UniProt P25116); test: In vitro thrombin receptor binding assay (CHRF membranes); details: tritiated 721-40 radioligand, read-out: Bndg IC50 (Thrombin receptor binding)
T1 construct: CHRF membranes (Jones, Biochim. Biophys. Acta 1992, 1136, 272) are thawed from −70° C; endogenous in cells; host or cells: CHRF cell membranes
T1 sequence (P25116 22-425): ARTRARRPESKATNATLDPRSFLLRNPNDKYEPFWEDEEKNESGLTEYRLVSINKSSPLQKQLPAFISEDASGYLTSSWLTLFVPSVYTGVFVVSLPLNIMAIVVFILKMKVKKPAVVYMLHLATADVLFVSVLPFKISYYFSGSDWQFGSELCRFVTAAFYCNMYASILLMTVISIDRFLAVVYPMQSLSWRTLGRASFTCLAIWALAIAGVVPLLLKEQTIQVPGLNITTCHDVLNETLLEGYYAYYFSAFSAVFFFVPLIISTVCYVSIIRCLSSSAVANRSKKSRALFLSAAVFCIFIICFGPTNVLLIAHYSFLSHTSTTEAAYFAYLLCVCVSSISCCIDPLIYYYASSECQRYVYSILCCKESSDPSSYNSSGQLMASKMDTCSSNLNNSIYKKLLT
Experimental: In Vitro Thrombin Receptor Binding Assay
CHRF membranes (Jones, Biochim. Biophys. Acta 1992, 1136, 272) are thawed from −70° C., centrifuged at maximum speed for 5 min, washed twice with binding buffer (50 mM HEPES containing 5 mM MgCl2 and 0.1% BSA), and re-suspended in binding buffer (25 μg/[…]). 100 μL of membranes are added to the 24-Wallac plates and delivered to the Tomtech apparatus. In a typical experiment, 6 μL of samples (from a 125 μg/mL intermediary plate, 20% DMSO) and 44 μL buffer are delivered to the plates (final conc. of compounds is 3.7 μg/mL, 0.6% DMSO). Similarly, 6 μL 20% DMSO and 44 μL buffer are delivered to both column 1 (NSB) and column 12 (TB). 10 μL Ser-pFPhe-Har-Leu-Har-Lys-Tyr-NH2 (721–40; 500 μM in deionized water) is added to column 1. 50 μL tritiated 721–40 (specific activity 46 Ci/mmol) is added to all the wells. The plates are mixed well for 20 seconds, incubated for 30 min,and then harvested with 10 mM HEPES/138 mM NaCl using the Skatron harvester. The filters (GF/C Brandel FPXLR 296) are presoaked 3 h in 0.5% polyethylenimine in HEPES/0.1M N-acetylglucosamine) are set in saran wrap and dried for 3 min in the microwave, and placed in sample bags (Wallac 1450-432). 4.5 mL scintillation fluid (Wallac, Betaplate Scint 1205-440) is added. The bags are sealed, placed in filter cassettes (Wallac 1450-104), and analyzed on the microbeta counter.
as §1

NCC[C@H](NC(=O)[C@H](CC1CCCCC1)NC(=O)Nc1ccc2c(CN3CCCC3)cn(Cc3c(Cl)cccc3Cl)c2c1)C(=O)NCc1ccccc1 [Compound 155] was tested, and the IC50 ([1]; Platelet) was 11000 nM and the IC50 [2] was 13500 nM.
NCCC[C@H](NC(=O)[C@H](Cc1ccc(F)c(F)c1)NC(=O)Nc1ccc2c(CN3CCCC3)cn(Cc3c(Cl)cccc3Cl)c2c1)C(=O)Nc1ccccc1 [Compound 127] was tested, and the IC50 ([1]; Platelet) was 930 nM and the IC50 [2] was 2400 nM.
In the case of N=C(N)NCCC[C@H](NC(=O)[C@H](Cc1ccc(F)c(F)c1)NC(=O)Nc1ccc2c(CN3CCCC3)cn(Cc3c(Cl)cccc3Cl)c2c1)C(=O)NCc1ccncc1 [Compound 62], the IC50 ([1]; Platelet) is reported as 1260 nM and the IC50 [2] is reported as 30 nM.
Compound N=C(N)NCCC[C@H](NC(=O)[C@H](Cc1ccc2ccccc2c1)NC(=O)Nc1ccc2c(CN3CCCC3)cn(Cc3c(Cl)cccc3Cl)c2c1)C(=O)NCc1ccccc1 [Compound 38] has an IC50 ([1]; Platelet) of 2500 nM and an IC50 [2] of 33500 nM.
Compound Cc1ccccc1Cn1cc(CN2CCCC2)c2ccc(NC(=O)N[C@@H](Cc3ccc(F)c(F)c3)C(=O)N[C@@H](CCCNC(=N)N)C(=O)NCCc3ccccc3)cc21 [Compound 57] has an IC50 ([1]; Platelet) of 1800 nM and an IC50 [2] of 300 nM.
N=C(N)NCCC[C@H](NC(=O)[C@H](Cc1ccccc1Cl)NC(=O)Nc1ccc2c(CN3CCCCC3)cn(Cc3c(Cl)cccc3Cl)c2c1)C(=O)NCc1ccccc1 [Compound 86] was tested, and the IC50 ([1]; Platelet) was 2900 nM and the IC50 [2] was 510 nM.
NCCNC(=O)[C@H](Cc1ccncc1)NC(=O)[C@H](Cc1ccc(F)c(F)c1)NC(=O)c1ccc2c(CN3CCCC3)cn(Cc3c(Cl)cccc3Cl)c2c1 [Compound 175, L-Alaninamide, N-[[1-[(2,6-dichlorophenyl)methyl]-3-(1-pyrrolidinylmethyl)-1H-indol-6-yl]carbonyl]-3,4-difluoro-L-phenylalanyl-N-(2-aminoethyl)-3-(4-pyridinyl)-] gave an IC50 ([1]; Platelet) of 1600 nM and an IC50 [2] of 90 nM.
With CN(Cc1ccccc1)C(=O)[C@H](CCCN)NC(=O)[C@H](Cc1ccc(F)c(F)c1)NC(=O)Nc1ccc2c(CN3CCCC3)cn(Cc3c(Cl)cccc3Cl)c2c1 [Compound 111] the IC50 ([1]; Platelet) was 3200 nM and the IC50 [2] was 1900 nM.
Compound COC[C@H]1CCCN1Cc1cn(Cc2cc(Cl)nc(Cl)c2)c2cc(NC(=O)N[C@@H](Cc3cccc(F)c3)C(=O)N[C@@H](CCCNC(=N)N)C(=O)NCc3ccccc3)ccc12 [Compound 91] has an IC50 ([1]; Platelet) of 22400 nM and an IC50 [2] of 4000 nM.
Work on NCCNC(=O)CCNC(=O)[C@H](Cc1ccc(Cl)cc1)NC(=O)Nc1ccc2c(CN3CCCC3)cn(Cc3c(Cl)cccc3Cl)c2c1 [Compound 146] yielded an IC50 ([1]; Platelet) of 11100 nM and an IC50 [2] of 2800 nM.
In the case of Cc1ccccc1Cn1cc(CN2CCCC2)c2ccc(NC(=O)N[C@@H](Cc3ccc(Cl)cc3)C(=O)N[C@@H](CCCNC(=N)N)C(=O)NCc3ccccc3)cc21 [Compound 48], the IC50 ([1]; Platelet) is reported as 500 nM and the IC50 [2] is reported as 7600 nM.
In the case of COc1ccc(C[C@H](NC(=O)Nc2ccc3c(CN4CCCC4)cn(Cc4ccc(I)cc4)c3c2)C(=O)N[C@@H](CCCNC(=N)N)C(=O)NCc2ccccc2)cc1 [Compound 23], the IC50 ([1]; Platelet) is reported as 8600 nM and the IC50 [2] is reported as 3100 nM.
COC[C@H]1CCCN1Cc1cn(Cc2c(Cl)cccc2Cl)c2cc(NC(=O)N[C@@H](Cc3ccc(Cl)cc3)C(=O)N[C@@H](CCCNC(=N)N)C(=O)NCc3ccccc3)ccc12 [Compound 87] gave an IC50 ([1]; Platelet) of 1300 nM and an IC50 [2] of 280 nM.
COc1ccc(C[C@H](NC(=O)Nc2ccc3c(CNC4CC4)cn(Cc4ccc(F)cc4)c3c2)C(=O)N[C@@H](CCCNC(=N)N)C(=O)NCc2ccccc2)cc1 [Compound 45] gave an IC50 ([1]; Platelet) greater than 10000 nM and an IC50 [2] of 13900 nM.
Work on NCCCNC(=O)[C@H](Cc1ccncc1)NC(=O)[C@H](Cc1ccc(Cl)cc1)NC(=O)Nc1ccc2c(CN3CCCC3)cn(Cc3c(Cl)cccc3Cl)c2c1 [Compound 145] yielded an IC50 ([1]; Platelet) of 250 nM and an IC50 [2] of 500 nM.
NC(=O)NCCC[C@H](NC(=O)[C@H](Cc1cccc(F)c1)NC(=O)Nc1ccc2c(CN3CCCC3)cn(Cc3c(Cl)cccc3Cl)c2c1)C(=O)NCc1ccccc1 [Compound 77] gave an IC50 ([1]; Platelet) of 29500 nM and an IC50 [2] of 620 nM.
NC(N)=NCCC[C@H](NC(=O)[C@H](Cc1cccc(F)c1)NC(=O)Nc1ccc2c(CN3CCC(=O)CC3)cn(Cc3c(Cl)cccc3Cl)c2c1)C(=O)NCc1ccccc1 [Compound 88] showed an IC50 ([1]; Platelet) of 12600 nM and an IC50 [2] of 1700 nM.
COc1ccc(C[C@H](NC(=O)Nc2ccc3c(CN4CCOCC4)cn(Cc4ccc(F)cc4)c3c2)C(=O)N[C@@H](CCCN=C(N)N)C(=O)NCc2ccccc2)cc1 [Compound 40] was tested, and the IC50 ([1]; Platelet) was greater than 10000 nM and the IC50 [2] was 3900 nM.
COc1ccc(C[C@H](NC(=O)Nc2ccc3c(c2)c(CN2CCCCC2)cn3Cc2ccc(F)cc2)C(=O)N[C@@H](CCCNC(=N)N)C(=O)NCc2ccccc2)cc1 [Compound 162] was tested, and the IC50 ([1]; Platelet) was 13000 nM and the IC50 [2] was 5300 nM.
In the case of N=C(N)NCCC[C@@H](NC(=O)[C@H](Cc1ccc(F)c(F)c1)NC(=O)Nc1ccc2c(CN3CCCC3)cn(Cc3c(Cl)cccc3Cl)c2c1)C(=O)NCc1ccccc1 [Compound 69], the IC50 [1] is reported as 310 nM and the IC50 [2] is reported as 620 nM.
Work on NCCC(NC(=O)C(Cc1ccc(F)c(F)c1)NC(=O)Nc1ccc2c(CN3CCCC3)cn(Cc3c(Cl)cccc3Cl)c2c1)C(=O)NC(CO)c1ccccc1 (stereo not drawn) [Compound 161] yielded an IC50 [1] of 520 nM.
In the case of N=C(N)NCCC[C@H](NC(=O)[C@H](Cc1ccncc1)NC(=O)Nc1ccc2c(CN3CCCC3)cn(Cc3ccc(F)cc3)c2c1)C(=O)NCc1ccccc1 [Compound 24], the IC50 ([1]; Platelet) is reported as 34800 nM and the IC50 [2] is reported as 4800 nM.
With NCCNC(=O)[C@H](Cc1cccs1)NC(=O)[C@H](Cc1ccc(Cl)cc1)NC(=O)Nc1ccc2c(CN3CCCC3)cn(Cc3c(Cl)cccc3Cl)c2c1 [Compound 136] the IC50 ([1]; Platelet) was 550 nM and the IC50 [2] was 1100 nM.
With NC(=O)CC[C@H](NC(=O)[C@H](Cc1ccc(F)c(F)c1)NC(=O)Nc1ccc2c(CN3CCCC3)cn(Cc3c(Cl)cccc3Cl)c2c1)C(=O)NCc1ccccc1 [Compound 103] the IC50 ([1]; Platelet) was 540 nM and the IC50 [2] was 1200 nM.
N=C(N)NCCC[C@H](NC(=O)[C@H](Cc1ccc(F)c(F)c1)NC(=O)Nc1ccc2c(CN3CCCC3)cn(Cc3c(Cl)cccc3Cl)c2c1)C(=O)NCc1ccccc1 [Compound 46, L-Argininamide, 3,4-difluoro-N-[[[1-[(2,6-dichlorophenyl)methyl]-3-(1-pyrrolidinylmethyl)-1H-indol-6-yl]amino]carbonyl]-L-phenylalanyl-N-(phenylmethyl)-] was tested, and the IC50 [1] was 280 nM and the IC50 [2] was 470 nM.
In the case of N=C(N)NCCC[C@H](NC(=O)[C@H](Cc1ccc(F)c(F)c1)NC(=O)Nc1ccc2c(CN3CCCC3)cn(Cc3ccc(F)cc3)c2c1)C(=O)NC(c1ccccc1)c1ccccc1 [Compound 60], the IC50 ([1]; Platelet) is reported as 930 nM and the IC50 [2] is reported as 2800 nM.
With NC(N)=NCCC[C@H](NC(=O)[C@H](Cc1ccc(I)cc1)NC(=O)Nc1ccc2c(CN3CCCCC3)cn(Cc3c(Cl)cccc3Cl)c2c1)C(=O)NCc1ccccc1 [Compound 85] the IC50 ([1]; Platelet) was 4800 nM and the IC50 [2] was 1600 nM.
For NCCC[C@H](NC(=O)[C@H](Cc1ccc(F)c(F)c1)NC(=O)Nc1ccc2c(CN3CCCC3)cn(Cc3c(Cl)cccc3Cl)c2c1)C(=O)NCc1cccnc1 [Compound 116], the IC50 ([1]; Platelet) was 1100 nM and the IC50 [2] was 410 nM.
COC(=O)C(NC(=O)C(CCN)NC(=O)C(Cc1ccc(F)c(F)c1)NC(=O)Nc1ccc2c(CN3CCCC3)cn(Cc3c(Cl)cccc3Cl)c2c1)c1ccccc1 (stereo not drawn) [Compound 160] showed an IC50 [1] of 600 nM.
N=C(N)NCCC[C@H](NC(=O)[C@H](CC1CCCCC1)NC(=O)Nc1ccc2c(CN3CCCC3)cn(Cc3ccc(F)cc3)c2c1)C(=O)NCc1ccccc1 [Compound 25] showed an IC50 [1] of 37100 nM.
